The IC50 is the concentration at which inhibition is half-maximal.

This assay addresses T1, TNKS2 (Homo sapiens, UniProt Q9H2K2).
T1 construct: GST-tagged Tnks-2 (873-1166 aa, prepared in-house); made in house
Put plainly: TNKS2 activity ELISA (autoparsylation assay). The class given is biochemical. The settings on record: GST-tagged Tnks-2 (873-1166 aa), luminescence. Here is the method:
Description of the TNKS1 and TNKS2 ELISA Assay
Biochemical activity testing of TNKS 1 and 2: activity ELISA (Autoparsylation assay)
For analysis of autoparsylation activity of TNKS 1 and 2 an activity ELISA iss performed: In the first step GST tagged TNKS is captured on a Glutathione coated plate. Then the activity assay with biotinylated NAD is performed in the absence/presence of the compounds. During the enzymatic reaction GST tagged TNKS transfers biotinylated ADP-ribose to itself from biotinylated NAD as co-substrate. For the detection streptavidin-HRP conjugate is added that binds to the biotinylated TNKS and is thereby captured to the plates. The amount of biotinylated resp. autoparsylated TNKS is detected with a luminescence substrate for HRP. The level of the luminescence signal correlats directly with the amount of autoparsylated TNKS and therefore with activity of TNKS.
The acitivity ELISA is performed in 384 well Glutathione coated microtiter plates (Express capture Glutathione coated plate, Biocat, Heidelberg, Germany). The plates are pre-equilibrated with PBS. Then the plates are incubated with 50 μl 20 ng/well GST-tagged Tnks-1 (1023-1327 aa, prepared in-house), respectively GST-tagged Tnks-2 (873-1166 aa, prepared in-house) in assay buffer (50 mM HEPES, 4 mM Mg-chloride, 0.05% Pluronic F-68, 2 mM DTT, pH 7.7) overnight at 4° C. The plates are washed 3 times with PBS-Tween-20. The wells are blocked by incubation at room temperature for 20 minutes with 50 μl blocking buffer (PBS, 0.05% Tween-20, 0.5% BSA). Afterwards the plates are washed 3 times with PBS-Tween-20. The enzymatic reaction is performed in 50 μl reaction solution (50 mM HEPES, 4 mM Mg-chloride, 0.05% Pluronic F-68, 1.4 mM DTT, 0.5% DMSO, pH 7.7) with10 μM bio-NAD (Biolog, Life science Inst., Bremen, Germany) as co-substrate in the absence or presence of the test compound (10 dilution concentrations) for 1 hour at 30° C. The reaction is stopped by 3 times washing with PBS-Tween-20. For the detection 50 μl of 20 ng/μl Streptavidin, HRP conjugate (MoBiTec, Göttingen, Germany) in PBS/0.05% Tween-20/0.01% BSA are added and the plates are incubated for 30 minutes at room temperature. After three times washing with PBS-Tween-20 50 μl of SuperSignal ELISA Femto Maximum sensitivity substrate solution (ThermoFisherScientific (Pierce), Bonn, Germany) are added. Following a 1 minute incubation at room temperature luminescence signals are measured with an Envision multimode reader (Perkin Elmer LAS Germany GmbH) at 700 nm. The full value used is the inhibitor-free reaction. The pharmacological zero value used is XAV-939 (Tocris) in a final concentration of 5 μM. The inhibitory values (IC50) are determined using either the program Symyx Assay Explorer® or Condosseo® from GeneData.
For orientation: ELISA stands for enzyme-linked immunosorbent assay.

T1 sequence (Q9H2K2 873-1166): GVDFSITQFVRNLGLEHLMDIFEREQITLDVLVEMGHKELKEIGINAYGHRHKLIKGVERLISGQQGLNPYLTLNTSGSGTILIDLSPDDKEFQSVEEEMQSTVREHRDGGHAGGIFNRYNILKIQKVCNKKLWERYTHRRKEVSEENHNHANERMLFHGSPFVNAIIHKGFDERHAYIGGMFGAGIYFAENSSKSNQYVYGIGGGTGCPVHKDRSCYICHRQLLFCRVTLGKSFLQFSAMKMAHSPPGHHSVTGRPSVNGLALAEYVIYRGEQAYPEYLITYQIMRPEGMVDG

In turn, `Cc1ccc(-c2cc3c(C)cccc3c(=O)[nH]2)cc1` [Compound A29, 5-methyl-3-(p-tolyl)-2H-isoquinolin-1-one] returned an IC50 of less than 300 nM.

Regarding `Cn1cc(-c2ccc(-c3cc4ccc(F)cc4c(=O)[nH]3)cc2)cn1` [Compound A18, 7-fluoro-3-[4-(1-methyl-1H-pyrazol-4-yl)-phenyl]-2H-isoquinolin-1-one], the concentration for half-maximal inhibition (IC50) was less than 300 nM.

In the case of `CC(C)(O)c1ccc(-c2cc3cnccc3c(=O)[nH]2)cc1` [Compound A23, 3-[4-(1-hydroxy-1-methyl-ethyl)phenyl]-2H-2,6-naphthyridin-1-one], the half-maximal inhibitory concentration (IC50) was less than 300 nM.

Compound `CC(C)(O)c1ccc(-c2cc3c(F)cccc3c(=O)[nH]2)cc1` [Compound A28, 5-fluoro-3-[4-(1-hydroxy-1-methyl-ethyl)phenyl]-2H-isoquinolin-1-one] displayed an IC50 of less than 300 nM.

For the compound `CC(C)(O)c1ccc(-c2cc3ccc(F)cc3c(=O)[nH]2)cc1` [Compound A6, 7-fluoro-3-[4-(1-hydroxy-1-methyl-ethyl)-phenyl]-2H-isoquinolin-1-one], the IC50 was less than 300 nM.

`CC(C)(O)c1ccc(-c2cc3cccc(F)c3c(=O)[nH]2)cc1` [Compound A27, 8-fluoro-3-[4-(1-hydroxy-1-methyl-ethyl)phenyl]-2H-isoquinolin-1-one] came in with an IC50 of less than 300 nM.

In the case of `COC(C)(C)c1ccc(-c2cc3ccccc3c(=O)[nH]2)cc1` [Compound A15, 3-[4-(1-methoxy-1-methyl-ethyl)-phenyl]-2H-isoquinolin-1-one], the IC50 is less than 300 nM.

The compound `CC(C)(O)c1ccc(-c2cc3cc(F)ccc3c(=O)[nH]2)cc1` [Compound A5, 6-fluoro-3-[4-(1-hydroxy-1-methyl-ethyl)-phenyl]-2H-isoquinolin-1-one] gave an IC50 of less than 300 nM.

As to `CC(C)(O)c1ccc(-c2cc3ccccc3c(=O)[nH]2)cc1` [Compound A3, 3-[4-(1-hydroxy-1-methyl-ethyl)-phenyl]-2H-isoquinolin-1-one], the IC50 was less than 300 nM.

Consider `Cc1ccc(-c2cc3cccc(F)c3c(=O)[nH]2)cc1` [Compound A11, 8-fluoro-3-p-tolyl-2H-isoquinolin-1-one], for which the IC50 is less than 300 nM.

In turn, `CC(C)(O)c1ccc(-c2cc3ccncc3c(=O)[nH]2)cc1` [Compound A24, 3-[4-(1-hydroxy-1-methyl-ethyl)phenyl]-2H-2,7-naphthyridin-1-one] registered an IC50 of less than 300 nM.

For `CC(C)(OCCO)c1ccc(-c2cc3ccc(F)cc3c(=O)[nH]2)cc1` [Compound A16, 7-fluoro-3-{4-[1-(2-hydroxy-ethoxy)-1-methyl-ethyl]-phenyl}-2H-isoquinolin-1-one], the IC50 was less than 300 nM.

`CC(C)(N)c1ccc(-c2cc3ccc(F)cc3c(=O)[nH]2)cc1` [Compound A20, 3-[4-(1-amino-1-methyl-ethyl)phenyl]-7-fluoro-2H-isoquinolin-1-one] registered an IC50 of less than 300 nM.

As to `C=C(C)c1ccc(-c2cc3ccc(F)cc3c(=O)[nH]2)cc1` [Compound A17, 7-fluoro-3-(4-isopropenyl-phenyl)-2H-isoquinolin-1-one], the IC50 was less than 300 nM.

The compound `CC(C)(O)c1ccc(-c2cc3c(F)cc(F)cc3c(=O)[nH]2)cc1` [Compound A33, 5,7-difluoro-3-[4-(1-hydroxy-1-methyl-ethyl)-phenyl]-2H-isoquinolin-1-one] yielded a half-inhibitory concentration (IC50) of less than 300 nM.

Take `Cn1cc(-c2ccc(-c3cc4ccncc4c(=O)[nH]3)cc2)cn1` [Compound A14, 3-[4-(1-Methyl-1H-pyrazol-4-yl)-phenyl]-2H-[2,7]naphthyridin-1-one]: the IC50 was less than 300 nM.

Regarding `Cc1ccc(-c2cc3ccc(F)cc3c(=O)[nH]2)cc1` [Compound A9, 7-fluoro-3-p-tolyl-2H-isoquinolin-1-one], the IC50 is less than 300 nM.

For `Cc1ccc(-c2cc3cc(F)ccc3c(=O)[nH]2)cc1` [Compound A10, 6-fluoro-3-p-tolyl-2H-isoquinolin-1-one], the half-inhibitory concentration (IC50) was less than 300 nM.

Compound `Cc1ccc(-c2cc3c(F)cccc3c(=O)[nH]2)cc1` [Compound A12, 5-fluoro-3-p-tolyl-2H-isoquinolin-1-one] gave an IC50 of less than 300 nM.

These data come from US9376433B2, “(AZA-)isoquinolinone derivatives” (MERCK PATENT GMBH, priority 2012, dated 2016).
